# Measurements taken from ChEMBL document CHEMBL1132782.
# Biological target: Prothrombin (Homo sapiens) (UniProt P00734)
# Assay: Inhibitory activity against human thrombin
row,SMILES,K ass
1,COc1cc(Cn2c(-c3ccc(OCCCC(=O)O)cc3)cc3ccccc32)ccc1CN1CCCC1,6.41e+06 l M-1
2,COc1cc(Cn2c(-c3ccc(OCCN4CCCC4)cc3)nc3cc(O)ccc32)ccc1Cn1ccnc1,9.6e+06 l M-1
3,COc1cc(Cn2c(-c3ccc(OCCN4CCCC4)cc3)cc3cnccc32)ccc1C(=O)N1CCCC1,8.37e+07 l M-1
4,O=C(c1ccc(OCCN2CCCC2)cc1)c1c(-c2ccc(OCCN3CCCC3)cc2)sc2ccccc12,410000 l M-1
5,c1ccc2c(Cc3ccc(OCCN4CCCC4)cc3)c(-c3ccc(OCCN4CCCC4)cc3)oc2c1,974000 l M-1
6,c1ccc2c(Cc3ccc(OCCN4CCCC4)cc3)c(-c3ccc(OCCN4CCCC4)cc3)[nH]c2c1,42000 l M-1
7,c1ccc2c(c1)cc(-c1ccc(OCCN3CCCC3)cc1)n2Cc1ccc(OCCN2CCCC2)cc1,6.27e+06 l M-1
8,COC(=O)CCCOc1ccc(-c2cc3ccccc3n2Cc2ccc(CN3CCCC3)c(OC)c2)cc1,2.47e+07 l M-1
9,COc1cc(Cn2c(-c3ccc(OCCCCO)cc3)cc3ccccc32)ccc1CN1CCCC1,3.37e+07 l M-1
10,COc1cc(Cn2c(-c3ccc(OCCn4cccn4)cc3)nc3ccccc32)ccc1CN1CCCC1,1.46e+06 l M-1
11,COc1cc(Cn2c(-c3ccc(OCCN4CCCC4)cc3)nc3cc(O)ccc32)ccc1Cn1ccnn1,1.02e+07 l M-1
12,c1ccc2c(c1)nc(-c1ccc(OCCN3CCCC3)cc1)n2Cc1ccc(OCCN2CCCC2)cc1,332000 l M-1
13,COc1cc(Cn2c(-c3ccc(OCCN4CCCC4)cc3)nc3cc(O)ccc32)ccc1NCc1ccccc1,1.65e+07 l M-1
14,COc1cc(Cn2c(-c3ccc(OCCN4CCCC4=O)cc3)nc3ccccc32)ccc1CN1CCCC1,1.5e+07 l M-1
15,COc1cc(Cn2c(-c3ccc(OCCN4CCCC4)cc3)cc3ccncc32)ccc1C(=O)N1CCCC1,5.97e+07 l M-1
16,COc1cc(Cn2c(-c3ccc(OCCN4CCCC4)cc3)nc3cc(O)ccc32)ccc1Cn1cccn1,1.2e+07 l M-1

# Second part, the compound after the results:
row,K ass,SMILES
1,7.68e+06 l M-1,COC(=O)CCCOc1ccc(-c2sc3ccccc3c2Cc2ccc(CN3CCCC3)c(OC)c2)cc1
2,1.93e+06 l M-1,COc1cc(Cn2c(-c3ccc(OCCN4CCCC4)cc3)nc3cc(CO)ccc32)ccc1CN1CCCC1
3,1.19e+07 l M-1,COc1cc(Cn2c(-c3ccc(OCCN4CCCC4)cc3)nc3ccccc32)ccc1CN1CCCC1
4,7.39e+07 l M-1,COc1cc(Cn2c(-c3ccc(OCCN4CCCC4)cc3)cc3cnccc32)ccc1CN1CCCC1
5,3.91e+06 l M-1,COc1cc(Cc2c(-c3ccc(OCCCC(=O)O)cc3)sc3ccccc23)ccc1CN1CCCC1
6,1.97e+08 l M-1,COc1cc(Cn2c(-c3ccc(OCCN4CCCC4)cc3)cc3ccccc32)ccc1CN1CCCC1
7,4.49e+06 l M-1,COc1cc(Cn2c(-c3ccc(OCCN4CCCC4)cc3)nc3cc(CN)ccc32)ccc1CN1CCCC1
8,1.49e+07 l M-1,COc1cc(Cc2c(-c3ccc(OCCCCO)cc3)sc3ccccc23)ccc1CN1CCCC1
9,9.72e+06 l M-1,COc1cc(Cn2c(-c3ccc(OCCN4CCCC4)cc3)nc3cc(O)ccc32)ccc1CN1CCCC1
10,8.15e+08 l M-1,COc1cc(Cc2c(-c3ccc(OCCN4CCCC4)cc3)sc3cc(O)ccc23)ccc1CN1CCCC1
11,1.26e+08 l M-1,COc1cc(Cc2c(-c3ccc(OCCN4CCCC4)cc3)sc3ccccc23)ccc1CN1CCCC1
